Measured values: ChEMBL document CHEMBL5126519, “Tuberculosis drug discovery: Progression and future interventions in the wake of emerging resistance” (Eur J Med Chem, 2022)
In brackets after ≈: the same amount, converted by molar mass.

Tests used:
[1] = system: Mycobacterium tuberculosis; experiment: Antimycobacterial activity against drug-resistant Mycobacterium tuberculosis; format: functional
[2] = system: Mycobacterium tuberculosis; experiment: Antimycobacterial activity against extensively drug-resistant Mycobacterium tuberculosis; format: functional

Row | Compound | MIC [1] [µg/mL] | also measured
1 | O=[N+]([O-])c1cn2c(n1)OC[C@@H](OCc1ccc(OC(F)(F)F)cc1)C2 [PRETOMANID] | 0.03 (≈ 0.0835 µM) | 
2 | C[C@@H](O)[C@H]1C(=O)N2C(C(=O)O)=C(SC3CN(C4=NCCS4)C3)[C@H](C)[C@H]12 [TEBIPENEM] |  | MIC [2]: 0.3 µM (≈ 0.115 µg/mL)
3 | Cc1cc(/C=C/c2ccc3cc(N(C)C)ccc3[n+]2C)c(C)n1-c1ccccc1.Cc1cc(/C=C/c2ccc3cc(N(C)C)ccc3[n+]2C)c(C)n1-c1ccccc1.O=C(O)c1cc2ccccc2c(Cc2c(O)c(C(=O)O)cc3ccccc23)c1O |  | MIC99 [1]: 1.55 µg/mL
4 | CCNC(=O)Nc1nc2nc(-c3cnc(C(C)(C)O)nc3)c(F)c([C@H]3CCCO3)c2[nH]1 | 0.08 (≈ 0.186 µM) | 
